Biological target: T1, HPPD (p-hydroxyphenylpyruvate dioxygenase) (Arabidopsis thaliana, UniProt P93836)
T1 construct: gene HPD; recombinant, overexpressed in E. coli, tested in total soluble protein extract; 1SP9 given only as docking structure
T1 sequence (P93836 1-445): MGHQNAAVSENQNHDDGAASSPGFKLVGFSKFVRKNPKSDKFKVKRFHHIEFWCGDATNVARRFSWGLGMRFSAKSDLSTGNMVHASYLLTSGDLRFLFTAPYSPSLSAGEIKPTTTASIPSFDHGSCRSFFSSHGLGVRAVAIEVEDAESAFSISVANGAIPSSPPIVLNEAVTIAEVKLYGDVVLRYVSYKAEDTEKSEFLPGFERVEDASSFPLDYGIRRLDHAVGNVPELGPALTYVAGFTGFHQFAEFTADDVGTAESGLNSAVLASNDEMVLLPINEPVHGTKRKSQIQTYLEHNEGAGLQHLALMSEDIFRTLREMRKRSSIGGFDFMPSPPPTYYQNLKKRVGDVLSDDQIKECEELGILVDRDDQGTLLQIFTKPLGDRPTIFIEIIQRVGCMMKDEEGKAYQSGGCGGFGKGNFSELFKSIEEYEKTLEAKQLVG
Assay: HPLC of homogentisate formed ([…] nm), dose-response
Assay type: biochemical
Conditions: 15 min incubation; slow tight-binding class; E. coli total soluble protein extract; positive control; read-out: I50app

Compound	IC50
CS(=O)(=O)c1ccc(C(=O)C2C(=O)CCCC2=O)c(Cl)c1 [sulcotrione, reference compound]	0.25 ± 0.02 µM

Same assay, conditions: read-out: I50 (μM) ^ab

Compound	IC50
Cc1noc2c1C(=O)CCC2 [1a]	> 100 µM
CC(=O)C1C(=O)CCCC1=O [1b]	23.1 ± 4.34 µM
Cc1noc2c1C(=O)C(O)CC2 (stereo not shown) [1c]	> 100 µM
CC(=O)C1=C(O)C(O)CCC1=O (stereo not shown) [1d]	> 1000 µM
Cc1noc2c1C(=O)CC(C)(C)C2 [1e]	> 100 µM
CC(=O)C1C(=O)CC(C)(C)CC1=O [1f]	53.1 ± 17.1 µM
Cc1noc2c1C(=O)C(O)C(C)(C)C2 (stereo not shown) [1g]	> 100 µM
CC(=O)C1=C(O)C(O)C(C)(C)CC1=O (stereo not shown) [1h]	166 ± 19.7 µM
CCCC(=O)C1C(=O)CCCC1=O [2a]	35.1 ± 6.24 µM
CCCC(=O)C1C(=O)CC(C)(C)CC1=O [2b]	16.6 ± 4.36 µM
CCCCCc1noc2c1C(=O)CCC2 [3a]	> 100 µM
CCCCCC(=O)C1C(=O)CCCC1=O [3b]	2.93 ± 0.47 µM
CCCCCc1noc2c1C(=O)C(O)CC2 (stereo not shown) [3c]	> 100 µM
CCCCCC(=O)C1=C(O)C(O)CCC1=O (stereo not shown) [3d]	15.8 ± 4.9 µM
CCCCCC(=O)C1C(=O)CC(C)(C)CC1=O [3e]	4.17 ± 0.45 µM
CCCCCCCCCc1noc2c1C(=O)CCC2 [4a]	> 100 µM
CCCCCCCCCC(=O)C1C(=O)CCCC1=O [4b]	0.46 ± 0.06 µM
CCCCCCCCCc1noc2c1C(=O)C(O)CC2 (stereo not shown) [4c]	> 100 µM
CCCCCCCCCC(=O)C1=C(O)C(O)CCC1=O (stereo not shown) [4d]	1.25 ± 0.4 µM
CCCCCCCCCC(=O)C1C(=O)CC(C)(C)CC1=O [4e]	2.66 ± 0.95 µM
CCCCCCCCCCCc1noc2c1C(=O)CCC2 [5a]	> 100 µM
CCCCCCCCCCCC(=O)C1C(=O)CCCC1=O [5b]	0.3 ± 0.03 µM

Compound	IC50
CCCCCCCCCCCc1noc2c1C(=O)C(O)CC2 (stereo not shown) [5c]	> 100 µM
CCCCCCCCCCCC(=O)C1=C(O)C(O)CCC1=O (stereo not shown) [5d]	0.18 ± 0.02 µM
CCCCCCCCCCCc1noc2c1C(=O)CC(C)(C)C2 [5e]	> 100 µM
CCCCCCCCCCCC(=O)C1C(=O)CC(C)(C)CC1=O [5f]	0.77 ± 0.11 µM
CCCCCCCCCCCc1noc2c1C(=O)C(O)C(C)(C)C2 (stereo not shown) [5g]	> 100 µM
CCCCCCCCCCCCCCCCC(=O)C1C(=O)CCCC1=O [6a]	1.58 ± 0.2 µM
CCCCCCCCCCCCCCCCC(=O)C1C(=O)CC(C)(C)CC1=O [6b]	1.7 ± 0.31 µM
CC(=O)CCCC(=O)C1C(=O)CCCC1=O [7a]	9.6 ± 1.4 µM
CC(=O)CCCC(=O)C1C(=O)CC(C)(C)CC1=O [7b]	17.2 ± 2.6 µM
O=C(C=Cc1ccccc1)C1C(=O)CCCC1=O [8a]	5.43 ± 0.58 µM
O=C1CCCC(=O)C1C(=O)CCc1ccccc1 [8b]	1.27 ± 0.09 µM
O=C(/C=C/c1ccccc1)C1=C(O)C(O)CCC1=O (stereo not shown) [8c]	59 ± 3.16 µM
CC1(C)CC(=O)C(C(=O)C=Cc2ccccc2)C(=O)C1 [8d]	58.6 ± 8.67 µM
CC1(C)CC(=O)C(C(=O)CCc2ccccc2)C(=O)C1 [8e]	2.17 ± 0.37 µM
Cc1ccccc1C=CC(=O)C1C(=O)CCCC1=O [9a]	1.2 ± 0.14 µM
Cc1ccccc1CCC(=O)C1C(=O)CCCC1=O [9b]	0.97 ± 0.09 µM
Cc1ccccc1C=CC(=O)C1C(=O)CC(C)(C)CC1=O [9c]	28.7 ± 8.7 µM
COc1cccc(C=CC(=O)C2C(=O)CCCC2=O)c1 [10a]	0.89 ± 0.1 µM
COc1cccc(CCC(=O)C2C(=O)CCCC2=O)c1 [10b]	0.31 ± 0.04 µM
COc1cccc(C=CC(=O)C2C(=O)CC(C)(C)CC2=O)c1 [10c]	6.4 ± 1.2 µM
COc1cccc(CCC(=O)C2C(=O)CC(C)(C)CC2=O)c1 [10d]	1.5 ± 0.17 µM
COc1ccc(C=CC(=O)C2C(=O)CCCC2=O)cc1 [11a]	12.3 ± 1.6 µM

Compound	IC50
COc1ccc(CCC(=O)C2C(=O)CCCC2=O)cc1 [11b]	2.36 ± 0.3 µM
COc1ccc(CCC(=O)C2=C(O)C(O)CCC2=O)cc1 (stereo not shown) [11c]	59.5 ± 11.8 µM
COc1ccc(C=CC(=O)C2C(=O)CC(C)(C)CC2=O)cc1 [11d]	141 ± 27 µM
COc1ccc(CCC(=O)C2C(=O)CC(C)(C)CC2=O)cc1 [11e]	12.9 ± 2.18 µM
COc1ccc(C=CC(=O)C2C(=O)CCCC2=O)cc1OC [12a]	9.16 ± 1.21 µM
COc1ccc(CCC(=O)C2C(=O)CCCC2=O)cc1OC [12b]	1.35 ± 0.18 µM
COc1ccc(C=CC(=O)C2C(=O)CC(C)(C)CC2=O)cc1OC [12c]	14.1 ± 2.21 µM
COc1ccc(CCC(=O)C2C(=O)CC(C)(C)CC2=O)cc1OC [12d]	8.69 ± 1.32 µM
COc1cc(C=CC(=O)C2C(=O)CCCC2=O)cc(OC)c1OC [14a]	2.06 ± 0.13 µM
COc1cc(C=CC(=O)C2C(=O)CC(C)(C)CC2=O)cc(OC)c1OC [14c]	2.22 ± 0.5 µM
COc1cc(CCC(=O)C2C(=O)CC(C)(C)CC2=O)cc(OC)c1OC [14d]	2.29 ± 0.25 µM
CN(C)c1ccc(CCC(=O)C2C(=O)CCCC2=O)cc1 [15b]	4.47 ± 0.51 µM
CN(C)c1ccc(CCC(=O)C2C(=O)CC(C)(C)CC2=O)cc1 [15d]	3.46 ± 0.64 µM
O=C1CCCC(=O)C1C(=O)CCc1ccc(Cl)cc1 [16b]	0.24 ± 0.02 µM
CC1(C)CC(=O)C(C(=O)CCc2ccc(Cl)cc2)C(=O)C1 [16d]	2.05 ± 0.19 µM
O=C(C=Cc1ccc(Br)cc1)C1C(=O)CCCC1=O [17a]	7.55 ± 0.93 µM
O=C(/C=C/c1ccc(Br)cc1)C1=C(O)C(O)CCC1=O (stereo not shown) [17b]	28.7 ± 4.82 µM
CC1(C)CC(=O)C(C(=O)C=Cc2ccc(Br)cc2)C(=O)C1 [17c]	8.34 ± 1.57 µM
O=C(C=Cc1cccc(Br)c1)C1C(=O)CCCC1=O [18a]	0.82 ± 0.08 µM
CC1(C)CC(=O)C(C(=O)C=Cc2cccc(Br)c2)C(=O)C1 [18b]	2.42 ± 0.25 µM
O=C(C=Cc1ccc([N+](=O)[O-])cc1)C1C(=O)CCCC1=O [19a]	7.61 ± 0.89 µM
CC1(C)CC(=O)C(C(=O)C=Cc2ccc([N+](=O)[O-])cc2)C(=O)C1 [19b]	27.5 ± 2.39 µM

Source: paper PMC9459959, “Synthesis and Activity of 2-Acyl-cyclohexane-1,3-dione Congeners Derived from Peperomia Natural Products against the Plant p-Hydroxyphenylpyruvate Dioxygenase Herbicidal Molecular Target Site” (Plants, 2022)
